# Results as given in ChEMBL document CHEMBL3797055, “Glabridin-chalcone hybrid molecules: drug resistance reversal agent against clinical isolates of methicillin-resistant Staphylococcus aureus” (Medchemcomm, 2016).
# Experiments:
# Assay type in all cases: functional
# [1] = tested on: Staphylococcus aureus; test: Antibacterial activity against clinical isolates of methicillin-resistant Staphylococcus aureus P4650 by broth microdilution assay
# [2] = tested on: Staphylococcus aureus; test: Antibacterial activity against clinical isolates of methicillin-resistant Staphylococcus aureus ST10760 by broth microdilution assay
# [3] = tested on: Staphylococcus aureus; test: Antibacterial activity against Staphylococcus aureus MTCC 96 by broth microdilution assay
# [4] = tested on: Staphylococcus aureus; test: Antibacterial activity against clinical isolates of methicillin-resistant Staphylococcus aureus P4629 by broth microdilution assay
# [5] = tested on: Staphylococcus aureus; test: Antibacterial activity against clinical isolates of methicillin-resistant Staphylococcus aureus ST2071 by broth microdilution assay
# [6] = tested on: Staphylococcus aureus; test: Antibacterial activity against clinical isolates of methicillin-resistant Staphylococcus aureus ST10342 by broth microdilution assay
# [7] = tested on: Staphylococcus aureus; test: Antibacterial activity against clinical isolates of methicillin-resistant Staphylococcus aureus P4423 by broth microdilution assay
Structure (SMILES),MIC [1] [µg/mL],MIC [2] [µg/mL],MIC [3] [µg/mL],MIC [4] [µg/mL],MIC [5] [µg/mL],MIC [6] [µg/mL],MIC [7] [µg/mL]
CCn1cc(C(=O)O)c(=O)c2cc(F)c(N3CCNCC3)cc21 [NORFLOXACIN],125,500,1.56,500,500,250,250
COc1ccc(C(=O)/C=C/c2cc3c(c4c2OC(C)(C)C=C4)OC[C@@H](c2ccc(OC)cc2OC)C3)c(OC)c1,> 100,> 100,> 100,> 100,> 100,> 100,> 100
COc1ccc([C@@H]2COc3c(cc(/C=C/C(=O)c4cc(OC)c(OC)c(OC)c4)c4c3C=CC(C)(C)O4)C2)c(OC)c1,25,25,25,25,25,25,25
COc1cc(OC)c([C@@H]2COc3c(ccc4c3C=CC(C)(C)O4)C2)cc1/C=C/C(=O)c1ccco1,25,25,25,25,25,25,25
COc1cc(OC)c([C@@H]2COc3c(cc(/C=C/C(=O)c4ccccc4OC)c4c3C=CC(C)(C)O4)C2)cc1/C=C/C(=O)c1ccccc1OC,100,100,50,100,100,100,100
COc1cccc(C(=O)/C=C/c2cc([C@@H]3COc4c(cc(/C=C/C(=O)c5cccc(OC)c5)c5c4C=CC(C)(C)O5)C3)c(OC)cc2OC)c1,> 100,> 100,> 100,> 100,> 100,> 100,> 100
COc1ccc([C@@H]2COc3c(ccc4c3C=CC(C)(C)O4)C2)c(OC)c1,> 100,> 100,> 100,> 100,> 100,> 100,> 100
COc1ccc([C@@H]2COc3c(cc(/C=C/C(=O)c4ccccc4)c4c3C=CC(C)(C)O4)C2)c(OC)c1,25,25,25,25,25,25,25
COc1ccc(C(=O)/C=C/c2cc([C@@H]3COc4c(ccc5c4C=CC(C)(C)O5)C3)c(OC)cc2OC)c(OC)c1,12.5,25,12.5,25,25,25,25
COc1cc(OC)c([C@@H]2COc3c(ccc4c3C=CC(C)(C)O4)C2)cc1C=O,> 100,> 100,> 100,> 100,> 100,> 100,> 100
COc1ccc(C(=O)/C=C/c2cc([C@@H]3COc4c(cc(/C=C/C(=O)c5ccc(OC)cc5)c5c4C=CC(C)(C)O5)C3)c(OC)cc2OC)cc1,> 100,> 100,100,> 100,> 100,> 100,> 100
COc1cc(OC)c([C@@H]2COc3c(ccc4c3C=CC(C)(C)O4)C2)cc1/C=C/C(=O)c1ccc[nH]1,50,50,25,50,50,50,50
COc1ccc([C@@H]2COc3c(cc(/C=C/C(=O)c4ccc[nH]4)c4c3C=CC(C)(C)O4)C2)c(OC)c1,> 100,> 100,100,> 100,> 100,> 100,> 100
COc1cc(OC)c([C@@H]2COc3c(ccc4c3C=CC(C)(C)O4)C2)cc1/C=C/C(=O)c1ccccc1,25,25,25,25,25,25,25
COc1cc(OC)c([C@@H]2COc3c(cc(/C=C/C(=O)c4ccccc4)c4c3C=CC(C)(C)O4)C2)cc1/C=C/C(=O)c1ccccc1,25,25,25,25,25,25,25
COc1ccc(C(=O)/C=C/c2cc([C@@H]3COc4c(cc(/C=C/C(=O)c5ccc(OC)cc5OC)c5c4C=CC(C)(C)O5)C3)c(OC)cc2OC)c(OC)c1,50,50,50,50,50,50,50
COc1cc(OC)c([C@@H]2COc3c(cc(/C=C/C(=O)c4ccc[nH]4)c4c3C=CC(C)(C)O4)C2)cc1/C=C/C(=O)c1ccc[nH]1,50,50,50,50,50,50,50
COc1cc(OC)c([C@@H]2COc3c(ccc4c3C=CC(C)(C)O4)C2)cc1/C=C/C(=O)c1ccccc1OC,> 100,> 100,> 100,> 100,> 100,> 100,> 100
COc1cccc(C(=O)/C=C/c2cc([C@@H]3COc4c(ccc5c4C=CC(C)(C)O5)C3)c(OC)cc2OC)c1,50,50,25,50,50,50,50
COc1cc(OC)c([C@@H]2COc3c(cc(/C=C/C(=O)c4cc(OC)c(OC)c(OC)c4)c4c3C=CC(C)(C)O4)C2)cc1/C=C/C(=O)c1cc(OC)c(OC)c(OC)c1,100,100,50,100,100,100,100
COc1cc(OC)c([C@@H]2COc3c(ccc4c3C=CC(C)(C)O4)C2)cc1/C=C/C(=O)c1ccc(OC)c(OC)c1,> 100,> 100,100,> 100,> 100,> 100,> 100
COc1ccc([C@@H]2COc3c(cc(/C=C/C(=O)c4ccccc4OC)c4c3C=CC(C)(C)O4)C2)c(OC)c1,25,50,25,25,50,50,50
COc1cc(OC)c([C@@H]2COc3c(cc(C=O)c4c3C=CC(C)(C)O4)C2)cc1C=O,> 100,> 100,> 100,> 100,> 100,> 100,> 100
COc1ccc([C@@H]2COc3c(cc(C=O)c4c3C=CC(C)(C)O4)C2)c(OC)c1,> 100,> 100,> 100,> 100,> 100,> 100,> 100
COc1ccc(C(=O)/C=C/c2cc([C@@H]3COc4c(ccc5c4C=CC(C)(C)O5)C3)c(OC)cc2OC)cc1,> 100,> 100,50,> 100,> 100,> 100,> 100
COc1cccc(C(=O)/C=C/c2cc3c(c4c2OC(C)(C)C=C4)OC[C@@H](c2ccc(OC)cc2OC)C3)c1,25,25,25,25,25,25,25
COc1cc(OC)c([C@@H]2COc3c(ccc4c3C=CC(C)(C)O4)C2)cc1/C=C/C(=O)c1cc(OC)c(OC)c(OC)c1,25,25,25,25,25,25,25
COc1ccc(C(=O)/C=C/c2cc3c(c4c2OC(C)(C)C=C4)OC[C@@H](c2ccc(OC)cc2OC)C3)cc1,> 100,> 100,> 100,> 100,> 100,> 100,> 100
